Reference: patent US11225465B2, “Albicidin derivatives, their use and synthesis” (TECHNISCHE UNIVERSITÄT BERLIN, priority 2017, dated 2022)

Assays:
Assay in all cases: MHK against further strains (Table 2)
Assay type in all cases: cell-based
[1] = tested on: Enterobacter aerogenes 220-1-22; details: Nr. 18 Enterobacter aerogenes 220-1-22, clinical isolate
Procedure: (§1) The tests were performed using the micro dilution method.
(§2) The determination of MIC values was performed according to the ninth edition of the Approved Standard M07-A9 (CLSI. Methods for Dilution Antimicrobial Susceptibility Tests for Bacteria That Grow Aerobically; Approved Standard—Ninth Edition. CLSI document M07-A9. Wayne, Pa.: Clinical and Laboratory Standards Institute; 2012.)

[2] = tested on: Pseudomonas aeruginosa PEG-10-44-76; details: Nr. 21 Pseudomonas aeruginosa PEG-10-44-76, clinical isolate
Procedure: as §1, §2

[3] = tested on: Acinetobacter baumannii PEG 10-57-24; details: Nr. 24 Acinetobacter baumannii PEG 10-57-24, clinical isolate
Procedure: as §1, §2

[4] = tested on: Staphylococcus aureus PEG 13-18-19; details: Nr. 26 Staphylococcus aureus PEG 13-18-19, clinical isolate
Procedure: as §1, §2

[5] = tested on: Klebsiella oxytoca PEG-10-45-54; details: Nr. 16 Klebsiella oxytoca PEG-10-45-54, clinical isolate; KBE/ml 4.40E+05
Procedure: as §1, §2

[6] = tested on: Escherichia coli 100-2-56; details: Nr. 3 Escherichia coli 100-2-56, clinical isolate
Procedure: as §1, §2

[7] = tested on: Enterococcus faecium PEG 13-73-65; details: Nr. 30 Enterococcus faecium PEG 13-73-65, clinical isolate
Procedure: as §1, §2

[8] = tested on: Acinetobacter baumannii PEG 10-12-26; details: Nr. 22 Acinetobacter baumannii PEG 10-12-26, clinical isolate
Procedure: as §1, §2

[9] = tested on: Acinetobacter baumannii PEG 10-57-31; details: Nr. 23 Acinetobacter baumannii PEG 10-57-31, clinical isolate; KBE/ml 2.60E+05
Procedure: as §1, §2

[10] = tested on: Staphylococcus aureus PEG 10-38-22; details: Nr. 9 Staphylococcus aureus PEG 10-38-22, clinical isolate
Procedure: as §1, §2

[11] = tested on: Enterobacter cloacae PEG-10-52-78; details: Nr. 17 Enterobacter cloacae PEG-10-52-78, clinical isolate
Procedure: as §1, §2

[12] = tested on: Pseudomonas aeruginosa PEG-10-2-61; details: Nr. 7 Pseudomonas aeruginosa PEG-10-2-61, clinical isolate
Procedure: as §1, §2

[13] = tested on: Pseudomonas aeruginosa PEG-10-47-57; details: Nr. 20 Pseudomonas aeruginosa PEG-10-47-57, clinical isolate
Procedure: as §1, §2

[14] = tested on: Klebsiella pneumoniae PEG-10-48-8; details: Nr. 12 Klebsiella pneumoniae PEG-10-48-8, clinical isolate
Procedure: as §1, §2

[15] = tested on: Klebsiella oxytoca PEG-10-75-18; details: Nr. 15 Klebsiella oxytoca PEG-10-75-18, clinical isolate
Procedure: as §1, §2

[16] = tested on: Klebsiella pneumoniae PEG-10-20-4; details: Nr. 4 Klebsiella pneumoniae PEG-10-20-4, clinical isolate
Procedure: as §1, §2

[17] = tested on: Staphylococcus aureus ATCC 29213; details: Nr. 8 Staphylococcus aureus ATCC 29213; KBE/ml 6.60E+05
Procedure: as §1, §2

[18] = tested on: Pseudomonas aeruginosa ATCC 27853; details: Nr. 6 Pseudomonas aeruginosa ATCC 27853; KBE/ml 5.60E+05
Procedure: as §1, §2

[19] = tested on: Enterobacter asburiae PEG-13-74-62; details: Nr. 19 Enterobacter asburiae PEG-13-74-62, clinical isolate; KBE/ml 8.20E+05
Procedure: as §1, §2

[20] = tested on: Acinetobacter baumannii PEG 10-86-5; details: Nr. 25 Acinetobacter baumannii PEG 10-86-5, clinical isolate; KBE/ml 2.00E+05
Procedure: as §1, §2

[21] = tested on: Enterococcus faecium PEG 13-9-13; details: Nr. 28 Enterococcus faecium PEG 13-9-13, clinical isolate
Procedure: as §1, §2

[22] = tested on: Klebsiella pneumoniae PEG-10-90-74; details: Nr. 5 Klebsiella pneumoniae PEG-10-90-74, clinical isolate; KBE/ml 4.00E+05
Procedure: as §1, §2

[23] = tested on: Klebsiella pneumoniae PEG-10-75-61; details: Nr. 13 Klebsiella pneumoniae PEG-10-75-61, clinical isolate; KBE/ml 4.00E+05
Procedure: as §1, §2

[24] = tested on: Escherichia coli 100-2-49; details: Nr. 2 Escherichia coli 100-2-49, clinical isolate; KBE/ml 3.80E+05
Procedure: as §1, §2

[25] = tested on: Staphylococcus aureus PEG 13-71-26; details: Nr. 27 Staphylococcus aureus PEG 13-71-26, clinical isolate
Procedure: as §1, §2

[26] = tested on: Escherichia coli PEG 10-2-81; details: Nr. 10 Escherichia coli PEG 10-2-81, clinical isolate
Procedure: as §1, §2

[27] = tested on: Escherichia coli PEG 10-79-22; details: Nr. 11 Escherichia coli PEG 10-79-22, clinical isolate
Procedure: as §1, §2

[28] = tested on: Klebsiella pneumoniae 310-1-54; details: Nr. 14 Klebsiella pneumoniae 310-1-54, clinical isolate
Procedure: as §1, §2

[29] = tested on: Enterococcus faecium PEG 13-17-59; details: Nr. 29 Enterococcus faecium PEG 13-17-59, clinical isolate
Procedure: as §1, §2

[30] = tested on: Escherichia coli ATCC 25922; details: Nr. 1 Escherichia coli ATCC 25922; KBE/ml 2.80E+05
Procedure: as §1, §2

Work on `COc1c(NC(=O)c2ccc(NC(=O)c3ccc(NC(=O)[C@H](Cc4c[nH]cn4)NC(=O)c4ccc(NC(=O)/C(C)=C/c5ccc(O)cc5)cc4)cc3)c(OC)c2O)ccc(C(=O)O)c1O` [Compound 1, L-His-albicidin] yielded an MHK [1] of 32 mg/L, an MHK [2] of 4 mg/L and an MHK [3] of 2 mg/L. The MHK [4] was 8 mg/L, the MHK [5] was 4 mg/L and the MHK [6] was 2 mg/L. For the same compound, the MHK [7] was 32 mg/L, the MHK [8] was 16 mg/L and the MHK [9] was 32 mg/L. The MHK [10] was 32 mg/L, the MHK [11] was 32 mg/L and the MHK [12] was 32 mg/L. For the same compound, the MHK [13] was 8 mg/L, the MHK [14] was 32 mg/L and the MHK [15] was 32 mg/L. The MHK [16] was 32 mg/L, the MHK [17] was 8 mg/L and the MHK [18] was 2 mg/L. The MHK [19] was 32 mg/L, the MHK [20] was 4 mg/L and the MHK [21] was 32 mg/L. It also gave an MHK [22] of 32 mg/L, an MHK [23] of 32 mg/L and an MHK [24] of 0.5 mg/L. The MHK [25] was 4 mg/L, the MHK [26] was 0.5 mg/L and the MHK [27] was 0.25 mg/L. The MHK [28] was 32 mg/L, the MHK [29] was 32 mg/L and the MHK [30] was 0.063 mg/L.
`COc1c(NC(=O)c2ccc(NC(=O)c3ccc(NC(=O)[C@H](CN(C)C)NC(=O)c4ccc(NC(=O)/C(C)=C/c5ccc(O)cc5)cc4)cc3)c(OC)c2O)ccc(C(=O)O)c1O` [Compound 2, L-DMDAP-Albicidin] gave an MHK [1] of 32 mg/L, an MHK [2] of 32 mg/L and an MHK [3] of 32 mg/L. The MHK [4] was 32 mg/L, the MHK [5] was 32 mg/L and the MHK [6] was 32 mg/L. It also gave an MHK [7] of 32 mg/L, an MHK [8] of 32 mg/L and an MHK [9] of 32 mg/L. It also gave an MHK [10] of 32 mg/L, an MHK [11] of 32 mg/L and an MHK [12] of 32 mg/L. The MHK [13] was 32 mg/L, the MHK [14] was 32 mg/L and the MHK [15] was 32 mg/L. The MHK [16] was 32 mg/L, the MHK [17] was 32 mg/L and the MHK [18] was 32 mg/L. It also gave an MHK [19] of 32 mg/L, an MHK [20] of 32 mg/L and an MHK [21] of 32 mg/L. It also gave an MHK [22] of 32 mg/L, an MHK [23] of 32 mg/L and an MHK [24] of 32 mg/L. For the same compound, the MHK [25] was 32 mg/L, the MHK [26] was 32 mg/L and the MHK [27] was 32 mg/L. The MHK [28] was 32 mg/L, the MHK [29] was 32 mg/L and the MHK [30] was 0.125 mg/L.
`COc1c(NC(=O)c2ccc(NC(=O)c3ccc(NC(=O)C(Cc4c[nH]nn4)NC(=O)c4ccc(NC(=O)/C(C)=C/c5ccc(O)cc5)cc4)cc3)c(OC)c2O)ccc(C(=O)O)c1O` [Compound 3, L-Azahis-Albicidin] was tested, and the MHK [1] was 4 mg/L, the MHK [2] was 0.5 mg/L and the MHK [3] was 1 mg/L. It also gave an MHK [4] of 0.5 mg/L, an MHK [5] of 0.5 mg/L and an MHK [6] of 0.25 mg/L. It also gave an MHK [7] of 8 mg/L, an MHK [8] of 16 mg/L and an MHK [9] of 32 mg/L. It also gave an MHK [10] of 2 mg/L, an MHK [11] of 32 mg/L and an MHK [12] of 8 mg/L. It also gave an MHK [13] of 4 mg/L, an MHK [14] of 32 mg/L and an MHK [15] of 8 mg/L. The MHK [16] was 32 mg/L, the MHK [17] was 0.5 mg/L and the MHK [18] was 1 mg/L. For the same compound, the MHK [19] was 32 mg/L, the MHK [20] was 4 mg/L and the MHK [21] was 8 mg/L. It also gave an MHK [22] of 32 mg/L, an MHK [23] of 32 mg/L and an MHK [24] of 0.063 mg/L. For the same compound, the MHK [25] was 0.125 mg/L, the MHK [26] was 0.063 mg/L and the MHK [27] was 0.063 mg/L. The MHK [28] was 32 mg/L, the MHK [29] was 8 mg/L and the MHK [30] was 0.008 mg/L.
`COc1c(NC(=O)c2ccc(NC(=O)c3ccc(NC(=O)[C@@H](CN(C)C)NC(=O)c4ccc(NC(=O)/C(C)=C/c5ccc(O)cc5)cc4)cc3)c(OC)c2O)ccc(C(=O)O)c1O` [Compound 16, D-DMDAP-Albicidin] was tested, and the MHK [1] was 32 mg/L, the MHK [2] was 32 mg/L and the MHK [3] was 32 mg/L. The MHK [4] was 32 mg/L, the MHK [5] was 32 mg/L and the MHK [6] was 32 mg/L. For the same compound, the MHK [7] was 32 mg/L, the MHK [8] was 32 mg/L and the MHK [9] was 32 mg/L. For the same compound, the MHK [10] was 32 mg/L, the MHK [11] was 32 mg/L and the MHK [12] was 32 mg/L. It also gave an MHK [13] of 32 mg/L, an MHK [14] of 32 mg/L and an MHK [15] of 32 mg/L. It also gave an MHK [16] of 32 mg/L, an MHK [17] of 32 mg/L and an MHK [18] of 32 mg/L. It also gave an MHK [19] of 32 mg/L, an MHK [20] of 32 mg/L and an MHK [21] of 32 mg/L. For the same compound, the MHK [22] was 32 mg/L, the MHK [23] was 32 mg/L and the MHK [24] was 32 mg/L. For the same compound, the MHK [25] was 32 mg/L, the MHK [26] was 32 mg/L and the MHK [27] was 32 mg/L. For the same compound, the MHK [28] was 32 mg/L, the MHK [29] was 32 mg/L and the MHK [30] was 16 mg/L.
